Values after ≈ are worked out from the molar mass of the structure shown. Where two headings read alike, the source gives them in different places.
Columns and labels:
[1] = tested on: patient-derived xenograft (PDX) of non-small cell lung carcinoma (NSCLC) with BRAF V600E mutation; test: Efficacy in BRAF V600E NSCLC PDX model; details: day 28
[2] = Solubility data for Compound 1 drug substance; type: physicochemical
[3] = Plasma and tumor pharmacokinetics in A2058 xenograft mice; type: in vivo, BALB/c nude mice; details: Compound 1 10 mg/kg
Procedure: For the PKPD study, agents were administered to BALB/c nude mice bearing A2058 human melanoma xenografts. Compound 1, encorafenib and dabrafenib were dosed once orally on day 1. Compound 1 was dosed at 10 mg/kg, encorafenib was dosed at 35 mg/kg and dabrafenib was dosed at 100 mg/kg.
To collect non-termination plasma samples, blood samples were collected into the 1.5 mL Eppendorf tubes containing 3 μL of 0.5 M K2 ethylenediaminetetraacetic acid (EDTA-K2). Anticoagulant blood samples were centrifuged at 2500×g at 4° C. for fifteen minutes.
To collect the termination plasma samples, mice were euthanized at predetermined time points after the treatment. Blood samples from the mice were collected into the 1.5 mL Eppendorf tubes containing […] of 0.5 M K2 ethylenediaminetetraacetic acid (EDTA-K2). Anticoagulant blood samples were centrifuged at 2500×g at 4° C. for fifteen minutes.
Tumor samples were collected at predicted time for pharmacokinetic (PK), Western Blot (WB) and formalin-fixed paraffin-embedded (FFPE) sample analysis. The tumor was dissected out, and the tumor sample was split into four parts, from which the 1st part was used for PK analysis, the 2nd part was used for WB analysis, the third part was used for FFPE analysis, and the 4th part was used as a backup for the study. PK and WB samples were transferred into pre-labeled tubes. Samples in tubes were snap-frozen in liquid nitrogen within two minutes after dissection. The samples were stored at −80° C. until analysis. Tumor samples for FFPE analysis were collected and fixed in formalin for twenty-four to forty-eight hours, after which FFPE blocks were prepared for analysis.
The harvested plasma and tumor samples were processed for pharmacokinetics analysis by LC-MS/MS with a concentration range of 0.200˜200 ng/mL for encorafenib, Dabrafenib and Compound 1 in tumor homogenate, 1.00˜1,000 ng/mL for Dabrafenib in plasma and 10.0˜10,000 ng/mL for Compound 1 and encorafenib in plasma.

[4] = tested on: BRAF V600E mutant A375-luciferase intracranial model; test: Efficacy in A375-luciferase intracranial model; details: for Survival rate: as of day 75
Procedure: For the efficacy study, agents were tested in A375 human melanoma cancer cell derived xenografts (CDX). […] The A375 tumor cells were maintained in vitro in DMEM medium supplemented with 10% fetal bovine serum and 1% Penicillin-Streptomycin at 37° C. in an atmosphere of 5% CO2 in air. The tumor cells were routinely subcultured twice weekly. The cells growing in an exponential growth phase were harvested and counted for tumor inoculation.
For this CNS study, A375 cells with a luciferase tag for tracking tumor cell signal, were injected intracranially into 6-8 week old female BALB/c nude mice. […] The mice were anaesthetized, restrained, and sterilized prior to surgery. […] A 2 mm hole was created to the right of the anterior fontanel and 0.5 mm above the coronal on the skull with a cranial drill. Cell suspensions in 20% Matrigel were mixed and aspirated into the injector carefully to avoid bubbles and wiped to avoid extracranial tumorigenesis. The needle was inserted vertically into the cranial hole and the cell mixture was slowly injected for two minutes and held for another minute to decrease the drainage of the cell suspension. The wound was closed, and a subcutaneous injection of 5 mg/kg Meloxicam was given to relieve the pain and continued for three days. The mice were monitored closely until they woke up after the surgery. After inoculation, the animals were checked daily for morbidity and mortality.
The administration of the test agents began three days after inoculation. […] Measurements for the presence of the A375 luciferase signal within the CNS were done with IVIS Lumina III machine. Images were collected twice weekly to follow the growth of the models. The tumor-bearing mice were weighed and intraperitoneally administered luciferin (Perkin Elmer Inc-122799) at a dosage of 150 mg/kg. After ten minutes, mice were pre-anesthetized with the mixture gas of oxygen and isoflurane. The bioluminescence value at fifteen minutes post luciferin injection was recorded as the final value and plotted. The endpoint for individual mice was reached when the mouse body weight decreased by 20% when compared to their starting weight.
The luciferase signal for the mice removed from study were not carried forward, so a sudden drop in luciferase signal over time is due to mice with a heavy tumor burden being terminated and their high luciferase signal not being carried forward.

[5] = BALB/c nude, mouse, plasma, oral, single dose p.o., Encorafenib 35 mg/kg, Dabrafenib 100 mg/kg, read-out: Concentration in Plasma ± SEM
[6] = BALB/c nude, mouse, tumor, oral, single dose p.o., Encorafenib 35 mg/kg, Dabrafenib 100 mg/kg, read-out: Concentration in Tumor ± SEM
[7] = single oral dose, encorafenib 35 mg/kg, dabrafenib 100 mg/kg

In the case of `CCN(C)S(=O)(=O)Nc1ccc(F)c(Oc2ccc3ncn([C@H]4COC5(CCN(C(=O)CC6(O)CCN(c7cc8c(cc7F)c(N7CCC(=O)NC7=O)nn8C)CC6)CC5)C4)c(=O)c3c2)c1C#N` [Compound 1, (3R)-3-[6-[2-cyano-3-[[ethyl(methyl)sulfamoyl]amino]-6-fluorophenoxy]-4-oxoquinazolin-3-yl]-8-[2-[1-[3-(2,4-dioxo-1,3-diazinan-1-yl)-5-fluoro-1-methylindazol-6-yl]-4-hydroxypiperidin-4-yl]acetyl]-1-oxa-8-azaspiro[4.5]decane], the Tumor response ([1]; 10 mg/kg PO BID plus trametinib 0.1 mg/kg PO QD) is reported as “tumor regression”, the Tumor response ([1]; 10 mg/kg PO BID, without trametinib) is reported as “tumor regression” and the solubility ([2]; FaSSIF, pH 6.48, fassif) is reported as 5840 µg/mL (≈ 6.1 mM). For the same compound, the solubility ([2]; FeSSIF, pH 4.86, fessif) was 1350 µg/mL (≈ 1.41 mM), the solubility ([2]; SGF, pH 1.74, simulated gastric fluid) was 6580 µg/mL (≈ 6.87 mM) and the solubility ([2]; aqueous buffer, 50 mM pH 6.8 phosphate buffer solution, pH 6.76) was 1530 µg/mL (≈ 1.6 mM). It also gave a solubility ([2]; aqueous buffer, 50 mM pH 7.4 phosphate buffer solution, pH 7.40) of 8790 µg/mL (≈ 9.18 mM), a solubility ([2]; aqueous buffer, 100 mM pH 3.0 citrate buffer solution, pH 3.02) of 2090 µg/mL (≈ 2.18 mM) and a solubility ([2]; aqueous buffer, 100 mM pH 4.5 citrate buffer solution, pH 4.53) of 3160 µg/mL (≈ 3.3 mM). For the same compound, the solubility ([2]; aqueous buffer, pH 9.0 NaOH solution, pH 8.55) was 21600 µg/mL (≈ 22.5 mM), the solubility ([2]; pH 8.9, Purified water, pH 8.90) was 42400 µg/mL (≈ 44.3 mM) and the solubility ([2]; simulated gastric fluid, pH 1.2 HCl/KCl solution, pH 1.17) was 23000 µg/mL (≈ 24 mM). The solubility ([2]; simulated gastric fluid, pH 2.0 HCl/KCl solution, pH 1.95) was 4350 µg/mL (≈ 4.54 mM), the concentration at 1 h ([3]; BALB/c nude, mouse, plasma, oral, 1 h, single dose p.o., Encorafenib 35 mg/kg, Dabrafenib 100 mg/kg, read-out: Concentration in Plasma ± SEM) was 32500 ± 1680 ng/mL and the concentration at 6 h [3, 5] was 8500 ± 2970 ng/mL. For the same compound, the concentration at 12 h [3, 5] was 429 ± 137 ng/mL, the concentration at 24 h [3, 5] was 190 ± 63.2 ng/mL and the concentration at 6 h [3, 6] was 1170 ± 352 ng/g. For the same compound, the concentration at 12 h [3, 6] was 191 ± 74.4 ng/g, the concentration at 24 h [3, 6] was 76 ± 18.3 ng/g and the concentration at 48 h ([3]; BALB/c nude, mouse, tumor, oral, 48 h, single dose p.o., Encorafenib 35 mg/kg, Dabrafenib 100 mg/kg, read-out: Concentration in Tumor ± SEM) was 16.1 ± 6.73 ng/g. The “Time of peak concentration in plasma” value [3, 7] was “one”, the “Time of peak concentration in tumor” value [3, 7] was “six” and the Survival rate ([4]; 10 mg/kg PO BID) was 50%. The Survival rate ([4]; 30 mg/kg PO BID) was 87.5%, the “Survival time compared to encorafenib” value ([4]; intracranial melanoma tumors) was “significant increase in survival time” and the “Bioluminescence signal (tumor burden)” value ([4]; relative to vehicle control or encorafenib treated mice) was “dramatically reduced the bioluminescence signal”.

From patent publication US20250289827A1, “MORPHIC FORMS OF A MUTANT BRAF DEGRADER AND METHODS OF MANUFACTURE THEREOF” (C4 THERAPEUTICS, INC., priority 2022, published 2025)
